molecular target: T1, human TLR7 (Homo sapiens, UniProt Q9NYK1); assay: Human TLR7 reporter assay (NF-kB-SEAP in HEK293 cells); assay type: cell-based; conditions: HEK293 cells stably carrying human TLR7 plasmid and NF-kB-SEAP reporter plasmid; 20 hours culture; final concentration 1 nM-10 μM; absorbance 405 nm; read-out: Human TLR7 binding activity (EC50)
T1 construct: expressed in transfected cells; host or cells: HEK293 (hTLR7/seap-293), stably transfected
T1 sequence (Q9NYK1 27-1049): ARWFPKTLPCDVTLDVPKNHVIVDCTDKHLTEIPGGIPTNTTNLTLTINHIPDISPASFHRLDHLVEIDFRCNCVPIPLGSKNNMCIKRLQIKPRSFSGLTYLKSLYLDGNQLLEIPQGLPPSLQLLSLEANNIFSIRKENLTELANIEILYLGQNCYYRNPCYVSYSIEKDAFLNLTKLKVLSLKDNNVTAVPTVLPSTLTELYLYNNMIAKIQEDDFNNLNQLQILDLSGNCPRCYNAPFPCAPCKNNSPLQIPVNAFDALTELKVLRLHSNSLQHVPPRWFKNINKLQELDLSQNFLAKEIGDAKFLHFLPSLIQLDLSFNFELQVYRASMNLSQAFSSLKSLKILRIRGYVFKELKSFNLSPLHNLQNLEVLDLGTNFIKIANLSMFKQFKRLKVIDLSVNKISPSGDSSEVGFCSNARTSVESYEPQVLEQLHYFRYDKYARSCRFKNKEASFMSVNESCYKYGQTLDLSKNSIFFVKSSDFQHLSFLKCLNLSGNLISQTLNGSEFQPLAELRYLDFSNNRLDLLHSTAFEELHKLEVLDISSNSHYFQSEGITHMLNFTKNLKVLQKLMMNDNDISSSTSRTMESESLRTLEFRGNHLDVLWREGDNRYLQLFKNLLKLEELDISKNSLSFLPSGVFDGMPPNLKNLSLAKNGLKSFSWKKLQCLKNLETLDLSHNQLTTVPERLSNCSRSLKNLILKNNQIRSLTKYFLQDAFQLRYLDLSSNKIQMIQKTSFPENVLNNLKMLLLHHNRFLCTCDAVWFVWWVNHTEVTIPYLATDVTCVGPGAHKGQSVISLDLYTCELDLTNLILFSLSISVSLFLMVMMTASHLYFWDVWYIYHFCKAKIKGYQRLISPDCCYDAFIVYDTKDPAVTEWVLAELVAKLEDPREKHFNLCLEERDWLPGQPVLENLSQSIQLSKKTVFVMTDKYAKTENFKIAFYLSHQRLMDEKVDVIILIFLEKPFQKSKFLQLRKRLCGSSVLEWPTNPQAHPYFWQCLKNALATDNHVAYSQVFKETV
Description: Human TLR7 Reporter Assay
HEK293 cells in which human TLR7 or rat TLR7 plasmid and reporter plasmid (NF-kB-SEAP) are stably introduced are dispersed in DMEM broth (10% FBS, 1% NEAA, 10 ug/mL blastocidin S HCl, 100 ug/mL Zeocin), and were seeded to 96 well plate per 90 μl/well (hTLR7/seap-293:20000 cells/well, rTLR7/seap-293:25000 cells/well).
Test compound (DMSO stock solution (2 μl) was diluted with the broth (200 μl) by 100 times) was added to the seeded cells to a 96 well plate (10 μl/well) (final concentration; 1 nM-10 μM, common ratio 3). After stirring by tapping side of the plate, the cells were cultured in a CO2 incubator for 20 hours. A substrate (50 μl/well) for reporter assay (substrate for SEAP, pNPP) was added to cells stimulated by test sample. Ten minutes after adding the substrate, the reaction quenching solution (4N NaOH) was added by 50 μl/well to cease enzymatic reaction. Sealing a top seal A on the plate, the absorbance was measured by a micro plate reader (405 nm).

Point of comparison: `CCCCOc1nc(N)c2[nH]c(=O)n(CCCN3CCC(C(=O)OC)CC3)c2n1` [Example 8, 2-Butoxy-7,8-dihydro-9-[3-(4-methoxycarbonylpiperidin-1-yl)propyl]-8-oxoadenine], EC50 1230 nM. Against it:
- CCCCOc1nc(N)c2[nH]c(=O)n(CCCCCN3CCC(C(=O)OC)CC3)c2n1 [Example 1, 2-Butoxy-7,8-dihydro-9-[5-(4-methoxycarbonylpiperidin-1-yl)pentyl]-8-oxoadenine] — 8.5-fold lower, 145 nM
- CCCCOc1nc(N)c2[nH]c(=O)n(CCCCCN3CCCC(CC(=O)OC)C3)c2n1 (stereo not drawn) [Example 3, 2-Butoxy-7,8-dihydro-9-[5-(3-methoxycarbonylmethylpiperidin-1-yl)pentyl]-8-oxoadenine] — 2.2-fold lower, 571 nM
- CCCCOc1nc(N)c2[nH]c(=O)n(CCN3CCCC(C(=O)OC)C3)c2n1 (stereo not drawn) [Example 5, 2-Butoxy-7,8-dihydro-9-[2-(3-methoxycarbonylpiperidin-1-yl)ethyl]-8-oxoadenine] — 1.5-fold lower, 807 nM
- CCCCOc1nc(N)c2[nH]c(=O)n(CCN3CCN(CCC(=O)OC)CC3)c2n1 [Example 7, 2-Butoxy-7,8-dihydro-9-[2-{4-(2-methoxycarbonylethyl)piperazin-1-yl}ethyl]-8-oxoadenine] — 3.9-fold higher, 4790 nM
- CCCCOc1nc(N)c2[nH]c(=O)n(CCCN3CCCC(C(=O)OC)C3)c2n1 (stereo not drawn) [Example 9, 2-Butoxy-7,8-dihydro-9-[3-(3-methoxycarbonylpiperidin-1-yl)propyl]-8-oxoadenine] — within 1.5-fold, 989 nM
- CCCCOc1nc(N)c2[nH]c(=O)n(CCCN3CCC(CC(=O)OC)CC3)c2n1 [Example 11, 2-Butoxy-7,8-dihydro-9-{3-[4-(2-methoxy-2-oxoethyl)piperidin-1-yl]propyl}-8-oxoadenine] — 2.6-fold higher, 3240 nM
- CCCCOc1nc(N)c2[nH]c(=O)n(CCCN3CCCC(CC(=O)OC)C3)c2n1 (stereo not drawn) [Example 12, 2-Butoxy-7,8-dihydro-9-{3-[3-(2-methoxy-2-oxoethyl)piperidin-1-yl]propyl}-8-oxoadenine] — within 1.5-fold, 1610 nM
- CCCCOc1nc(N)c2[nH]c(=O)n(CCCCCCN3CCC(C(=O)OC)CC3)c2n1 [Example 15, 2-Butoxy-7,8-dihydro-9-[6-(4-methoxycarbonylpiperidin-1-yl)hexyl]-8-oxoadenine] — 13-fold lower, 95.2 nM
- CCCCOc1nc(N)c2[nH]c(=O)n(CCCCCCCN3CCC(C(=O)OC)CC3)c2n1 [Example 16] — 8.5-fold lower, 145 nM
- CCCCOc1nc(N)c2[nH]c(=O)n(CCCCCCCCN3CCC(C(=O)OC)CC3)c2n1 [Example 17, 2-Butoxy-7,8-dihydro-9-[8-(4-methoxycarbonylpiperidin-1-yl)octyl]-8-oxoadenine] — 8.3-fold lower, 148 nM
- CCCCOc1nc(N)c2[nH]c(=O)n(CCCCN3CCCC(C(=O)OC)C3)c2n1 (stereo not drawn) [Example 19, 2-Butoxy-7,8-dihydro-9-[4-(3-methoxycarbonylpiperidin-1-yl)butyl]-8-oxoadenine] — 1.9-fold lower, 631 nM
